Key:
Aβ plaques = Aβ plaques in 5XFAD APP transgenic mice (immunohistochemistry); type: in vivo; conditions: Δ^9-THC 3 mg/kg once daily for 4 weeks
Description: Immunohistochemical analyses were performed to determine total Aβ in coronal brain sections as described previously (Chen et al., 2012). 5XFAD APP transgenic mice that vehicle, or Δ^9-THC (3 mg/kg) or Δ^9-THC+Celebrex (1 mg/kg) for 4 weeks at 4 to 6 months of age were anesthetized with ketamine/Xylazine (200/10 mg/kg) and subsequently transcardially perfused with PBS followed by 4% paraformaldehyde in phosphate buffer. The brains were quickly removed from the skulls and fixed in 4% paraformaldehyde overnight, and then transferred into the PBS containing 30% sucrose until sinking to the bottom of the small glass jars. Cryostat sectioning was made on a freezing Vibratome at 40 μm and series sections (10 to 12 slices) were collected in 0.1M phosphate buffer. […] 4′-6-Diamidino-2-phenylindole (DAPI), a fluorescent stain that binds strongly to DNA, was used it to detect cell nuclei in the sections. The sections were then mounted on slides for immunofluorescence detection using a Zeiss fluorescence microscope.

synaptophysin (Syn) = assay: Hippocampal synaptophysin expression (immunoblot); type: in vivo, mice; conditions: Δ^9-THC for 7 days
Akt, ERK, and p38MAPK = assay: Phosphorylation of Akt, ERK and p38MAPK in NG108-15 cells; conditions: Δ^9-THC 30 μM
COX-2 [1] = assay: COX-2 expression in neuronal and astroglial cell-enriched cultures; type: cell-based; conditions: assayed 12 hr after treatment
Description: Relative pure hippocampal neurons (astroglial cells<2%), mixed neurons and astroglial cells (astroglial cells ˜10%), and astroglial cell-enriched (astroglial cells>95%), and NG108-15 cell cultures were made as described previously (Sang et al, 2005; Zhang and Chen, 2008).
Primary hippocampal neurons (astroglial cells<2%), mixed neurons and astroglial cells (astroglial cells ˜10%), astroglial cell-enriched (astroglial cells>95%) and NG108-15 cells were cultured as described previously (Sang et al, 2005; Zhang and Chen, 2008). The extent of neurons and astroglial cells in culture were controlled by different treatments, which was estimated by using immunostaining with NeuN, a neuronal marker, glial fibrillary acidic protein (GFAP), an astrocytic marker, and OX-42, a microglial marker, in conjunction with DAPI staining.

catalepsy = assay: Bar test (catalepsy); type: in vivo, mice; conditions: Δ^9-THC 10 mg/kg; 30, 60, and 90 min after injection
Description: (§1) The classic Morris water maze and fear conditioning tests were performed to determine spatial and fear memory as described previously (Chen et al., 2012). The ‘open field’ test was conducted to detect the locomotor activity and the bar test was used to detect catalepsy (Egashira et al., 2007).
The cataleptic effect of Δ^9-THC was detected using the bar test as described previously with modification (Egashira et al., 2007; Pertwee and Wickens, 1991). Briefly, the front paws of each mouse were placed on an elevated rod (0.5 cm in diameter and 3.5 cm from the bottom of the test box) and the duration of time that the mouse kept motionless was determined. The test was conducted 30, 60, and 90 min after Δ^9-THC injection. Celebrex was injected 30 min prior to Δ^9-THC injection.

COX-1 = assay: Hippocampal COX-1 expression in mice (immunoblot); type: in vivo; conditions: Δ^9-THC 10 mg/kg, detected 4 hrs after injection
CREB = assay: Phosphorylation of hippocampal CREB; conditions: WT mice; Δ^9-THC for 7 days
[2] = test system: NF-κB p65 binding to ptgs2 promoter; type: cell-based; conditions: mixed culture; Δ^9-THC 30 μM
[3] = test system: Akt, ERK, p38MAPK and NF-κB; assay: Phosphorylation of Akt, ERK, p38MAPK and NF-κB in hippocampal tissue; type: in vivo, mice; conditions: Δ^9-THC 10 mg/kg
fear memory = assay: Fear conditioning test (contextual memory); type: in vivo, mice; conditions: 10 mg/kg once a day for 7 days; freezing 24 hrs after last injection
Description: as §1
Hippocampus-dependent contextual memory was determined using a fear-conditioning working-station (Coulbourn Instruments, Allentown, Pa.) and a one-trial protocol as describe previously (Chen et al., 2006a; 2006b). Mice were individually put into the shock chamber and allowed to freely explore the environment for 150 seconds. Immediately after this, a tone at 90 dB and 2,800 Hz (CS) was delivered for 30 seconds, and at the last 2 seconds a foot shock at 0.8 mA was delivered to the mice for 2 seconds (US). After the pairing of CS/US, mice were allowed to stay in the chamber for another 30 seconds and then returned to their home cages. Then the animals started receiving vehicle, Δ^9-THC (10 mg/kg), NS398 (10 mg/kg), Δ^9-THC+NS398 once a day for 7 days. Fear memory test was conducted 24 hours after the cessation of the last injections. For contextual conditioning, mice were individually put back into the chamber where they received the shock and the freezing response was recorded for 5 minutes with a sampling method at an interval of 5 seconds. […]

COX-2 [4] = assay: Hippocampal COX-2 expression in mice (immunoblot); type: in vivo

With CCCCCc1cc(O)c2c(c1)OC(C)(C)[C@@H]1CCC(C)=C[C@@H]21 [Δ^9-THC, Δ^9-tetrahydrocannabinol] as the compound, how does the “numbers of Aβ plaques” value (Aβ plaques; absence of Celebrex) read?
Its value is “significantly reduced”.

What about the “numbers of Aβ plaques” value (Aβ plaques; presence of Celebrex 1 mg/kg) of the same compound?
The value was “significantly reduced”.

What about the synaptophysin expression (synaptophysin (Syn)) of the same compound?
The synaptophysin expression was “did not alter expression of synaptophysin (Syn)”.

What about the “phosphorylation of Akt, ERK, and p38MAPK” value (Akt, ERK, and p38MAPK) of the same compound?
The value was “induced phosphorylation of these signaling molecules”.

And the “COX-2 expression in neuronal and astroglial cell-enriched cultures” value (COX-2 [1])?
Its value is “CB1R-dependent increase in COX-2 expression both in neuronal and astroglial cell-enriched cultures”.

What about the cataleptic effect (catalepsy) of the same compound?
Its cataleptic effect is “cataleptic and locomotor depressive effects”.

What about the “hippocampal COX-1 expression” value (COX-1) of the same compound?
The value was “unaffected”.

And the “phosphorylation of hippocampal CREB” value (CREB)?
Its value is “reduced expression of glutamate receptor subunits and phosphorylation of CREB”.

What about the “binding of NF-κB p65 to ptgs2 promoter positions −419 to −428 bp” value [2] of the same compound?
The value was “enhanced”.

What about the “phosphorylation of Akt, ERK, p38MAPK and NF-κB in the hippocampus” value [3] of the same compound?
Its value is “confirmed”.

What about the “fear memory after repeated Δ^9-THC” value (fear memory) of the same compound?
Its value is “impaired fear memory”.

And the “hippocampal COX-2 expression after cannabinoid injection” value (COX-2 [4]; single i.p. injection, CP55,940 10 mg/kg, detected 4 hrs)?
The value was “dose- and time-dependent induction of COX-2 in the brain”.

And the “hippocampal COX-2 expression after repeated injections” value (COX-2 [4]; Δ^9-THC 10 mg/kg i.p. once daily for 7 consecutive days, analyzed 24 hrs after last injection)?
The value was “steadily elevated”.
